The subject of one experiment is Chickweed. Briefly: (I) soil incorporation, growth regulatory or herbicidal effects. As to conditions: I soil incorporation 6.5 ppm, 21 days, 100=complete suppression. The class given is in vivo, Stellaria media. An excerpt:
(§1) (I) an attaclay/sand dust and incorporated in John Innes I potting compost at a rate equivalent to 6.5 and 3.25 parts per million weight/volume of active ingredient to soil and placed in anodised aluminium pans, 19 cm long×9.5 cm wide×5.0 cm high. This is approximately equivalent to a surface application of 2.8 and 1.4 kg active ingredient per hectare cultivated to a depth of 5 cm. Seeds of the species listed below were sown in the treated soil, one species per pan, watered and placed in a controlled environment room (22° C.; 65-85% relative humidity and 14 hours artificial illumination at 17000 lux) for 21 days.
(§2) The plants were then visually assessed for any growth regulatory or herbicidal effects. All differences from an untreated control were scored on a scale from 0-100, where 0 signifies no effect and 100 signifies complete suppression.
(§3) The results are shown in the following table where I stands for soil incorporation and II for surface spray.

The next experiment relates to Fathen. The experiment is described as above. The class given is in vivo, Chenopodium album. As to conditions: I soil incorporation 6.5 ppm, 21 days, 100=complete suppression.
Text: as §1, §2, §3

The test system of a further experiment is Xanthomonas malvacearum. Briefly: bacteriostatic test in dextrose nutrient broth. The settings on record: 1,000 and 200 ppm weight/volume; 8 days at 25° C. The class given is cell-based. Here is the method: A 1% suspension/solution of the product of Example 157 in polyethylene glycol (Carbowax 400) was added to a dextrose nutrient broth to give a concentration of 1,000 parts per million (ppm) weight/volume of medium. Dilution in test tubes was then carried out to give a concentration of 200 ppm weight/volume of medium. To 8 ml quantities of broth was added 0.2 ml of a dense broth culture of the bacterium causing black arm of cotton, Xanthomonas malvacearum. After 8 days incubation at 25° C., all the broth specimens were examined for signs of bacterial growth.

The next experiment deals with Cotton. Briefly: (II) surface spray, growth regulatory or herbicidal effects. It is filed as in vivo, Gossypium sp. The settings on record: 21 days, 100=complete suppression.
Text: (§4) (II) An aqueous suspension together with 1000 ppm of the wetting agent Lissapol NX. The surfaces of an additional set of pans with seeds already sown were then sprayed with 2.8 or 1.4 kg/ha in 450 liters/hectare, and the pans kept in the controlled environment room for 21 days.
as §2, §3

The subject of a further experiment is Tomato. Described as above. As to conditions: 21 days, 100=complete suppression. It is filed as in vivo, Lycopersicon esculentum.
Text: as §4, §2, §3

The next experiment relates to Wheat. The experiment is described as above. The class given is in vivo, Triticum aestivum. The settings on record: 21 days, 100=complete suppression.
Text: as §4, §2, §3

A further experiment relates to Barley. Described as above. The class given is in vivo, Hordeum vulgare. As to conditions: 21 days, 100=complete suppression.
Text: as §4, §2, §3

In a further experiment the test system is Rice. The description is as above. As to conditions: 21 days, 100=complete suppression. It is filed as in vivo, Oryza sativa.
Text: as §4, §2, §3

For the next experiment, the system named is Carrot. The experiment is described as above. As to conditions: 21 days, 100=complete suppression. The class given is in vivo, Daucus carota.
Text: as §4, §2, §3

For another experiment, the system named is Barnyard Grass. The experiment is described as above. The class given is in vivo, Echinochloa crus-galli. The settings on record: II surface spray 1.4 kg/ha (line 3.25 ppm), 21 days, 100=complete suppression.
Text: as §4, §2, §3

The test system of a further experiment is acetylcholinesterase. Briefly: standard test indicative of insecticidal activity, inhibition of acetylcholinesterase. It is filed as biochemical. As to conditions: 100 micromolar.
Where [1] appears, read: II surface spray 1.4 kg/ha (line 3.25 ppm).
The mark [2] stands for this setting: II surface spray 2.8 kg/ha (line 6.5 ppm).

Consider `CCOC(=O)C(CC)N(c1c(C)cccc1C)S(C)(=O)=O` (centres unmarked) [Example 95], for which the “growth regulatory or herbicidal effect score” value in the experiment with Chickweed was found to be 90; in the experiment on Fathen, 100.
As to `CS(=O)(=O)N(CC(N)=S)c1cccc(Cl)c1Cl` [Example 157], in the experiment with Xanthomonas malvacearum, the bacterial growth entry is “No growth”.
In the case of `Cc1ccc(N(CC#N)S(C)(=O)=O)cc1Cl` [Example 131], the “growth regulatory or herbicidal effect score” value with Cotton (setting [1]), in the experiment with Cotton (setting [2]), with Tomato (setting [1]), in the experiment on Tomato (setting [2]), with Wheat (setting [1]) and in the experiment with Wheat (setting [2]) was 0 each time. Besides, the “growth regulatory or herbicidal effect score” value in the experiment on Barley (setting [1]), in the experiment on Barley (setting [2]), in the experiment on Rice (setting [1]), in the experiment with Rice (setting [2]), in the experiment with Carrot (setting [1]) and in the experiment on Carrot (setting [2]) was 0 throughout.
Take `CCS(=O)(=O)N(CC(N)=S)c1ccc(Cl)c(Cl)c1` [Example 156]: the “growth regulatory or herbicidal effect score” value in the experiment with Cotton (setting [1]), in the experiment on Cotton (setting [2]), with Tomato (setting [1]), with Tomato (setting [2]), in the experiment with Wheat (setting [1]) and in the experiment with Wheat (setting [2]) was 0 each time. For the same compound, the “growth regulatory or herbicidal effect score” value in the experiment on Barley (setting [1]), in the experiment on Barley (setting [2]), in the experiment with Rice (setting [1]) and in the experiment with Rice (setting [2]) was 0 in each case.
For `Cc1ccc(N(CC(N)=S)S(C)(=O)=O)cc1Cl` [Example 150], the “growth regulatory or herbicidal effect score” value in the experiment with Cotton (setting [1]), with Cotton (setting [2]), in the experiment with Tomato (setting [1]), in the experiment with Tomato (setting [2]), with Wheat (setting [1]) and with Wheat (setting [2]) was 0 in each case. Also, the “growth regulatory or herbicidal effect score” value in the experiment on Barley (setting [1]), with Barley (setting [2]), with Rice (setting [1]) and with Rice (setting [2]) was 0 each time.
In the case of `CCS(=O)(=O)N(CC#N)c1ccc(Cl)c(Cl)c1` [Example 137], the “growth regulatory or herbicidal effect score” value in the experiment with Cotton (setting [1]), with Cotton (setting [2]), in the experiment on Tomato (setting [1]), in the experiment with Tomato (setting [2]), in the experiment on Wheat (setting [1]) and in the experiment on Wheat (setting [2]) was 0 throughout. The “growth regulatory or herbicidal effect score” value in the experiment on Barley (setting [1]) is recorded as 0; with Barley (setting [2]), 0; in the experiment with Barnyard Grass it was 90; with Rice (setting [1]), 0; with Rice (setting [2]) it was 0; with Carrot (setting [1]) it was 0. Further, the “growth regulatory or herbicidal effect score” value in the experiment with Carrot (setting [2]) was 0.
Turning to `CNC(=O)ON=C(C)CN(c1c(C)cccc1C)S(C)(=O)=O` [Example 248, N-[2-(methylcarbamoyloxyimino)propyl]-2',6'-dimethylmethanesulphonanilide], in the experiment with acetylcholinesterase, the inhibition of acetylcholinesterase amounted to 30%.
For `CS(=O)(=O)N(CC(N)=S)c1ccc(Cl)c(Cl)c1` [Example 85, N-(thiocarbamoylmethyl)-3,4-dichloromethanesulphonanilide], the “growth regulatory or herbicidal effect score” value in the experiment with Cotton (setting [1]), in the experiment on Cotton (setting [2]), with Tomato (setting [1]), in the experiment with Tomato (setting [2]), in the experiment on Wheat (setting [1]) and in the experiment with Wheat (setting [2]) was 0 in each case. In addition, the “growth regulatory or herbicidal effect score” value in the experiment on Barley (setting [1]) came to 0; with Barley (setting [2]) it was 0; with Barnyard Grass, 90; with Rice (setting [1]), 0; with Rice (setting [2]), 0; in the experiment with Carrot (setting [1]) it was 0. Further, the “growth regulatory or herbicidal effect score” value in the experiment with Carrot (setting [2]) came out at 0.

For the origin of these results see patent US4349378A, “Compounds useful as pesticides” (FBC Limited, priority 1978, dated 1982).
